Data from patent US20060169172A1, “Disazo compound and ink composition containing the same” (priority 2003, published 2006).

Assays:
Assay type in all cases: physicochemical
[1] = Test for light fastness (xenon weather meter); details: 24° C., 60% RH, 50 hours
Description: (§1) The solution of the composition shown in Table 2 below, containing the disazo compound (a dyestuff component) obtained in Example 1 or 2 was prepared and filtered with a 0.45 μm membrane filter to obtain each water-based yellow ink composition for ink-jet printing. Ion-exchange water was used. Water and ammonium hydroxide were added so that the pH of the ink composition is 8 to 10 and the total amount is 100 parts.
(§2) Ink-jet recording is carried out on four kinds of recording materials of plain paper, Professional photo paper (PR-101 (made by Canon Inc.)), Photo glossy film (HG-201 (made by Canon Inc.)) and Paper for PM photo (made by SEIKO EPSON CORP.), using an ink-jet printer (Trade name: BJ S-630 from Canon Inc.) (hereinafter, described as follows, PR: Professional photo paper, HG: Photo glossy film, PM: Paper for PM photo).
The recorded image was irradiated at 24° C. and 60% RH for 50 hours using a xenon weather meter (made by Atlas Corp.). Densities (D values) of the images before and after the irradiation were measured by means of the above calorimetric system.
Residual ratio (%)=D value after irradiation/D value before irradiation
(§3) The results of evaluation of the ink composition prepared using the compound obtained in Example 1 are referred to Evaluation Example 1, and similarly the results of evaluation of the ink composition prepared using the compound obtained in Example 2 are referred to Evaluation Example 2. The compound represented by the following formula (6) and the compound represented by the following formula (7) were used as Comparative Example 1 and Comparative Example 2 and those were evaluated at the same optical density as those of Evaluation Examples 1 and 2 in the composition shown in Table 2.

[2] = Test for ozone fastness (ozone weather meter); details: 24° C., 12 ppm, 60% RH, 2 hours
Description: as §1, §2
(§4) A sample piece having a recorded image printed on the sample piece was left for standing at 24° C., 12 ppm and 60% RH for 2 hours using an ozone weather meter (Model OMS-H made by Suga Test Instruments Co., Ltd.). Densities (D values) before and after the test were measured. (4) A sample piece having a recorded image printed on the sample piece for a moisture fastness test was left for standing at 50° C. and 90% RH for 150 hours in a thermo-hygrostat (made by Ouyou giken sangyou Corp.). Bleeding degrees before and after the test was evaluated by visual inspection.
as §3

[3] = Moisture fastness test (bleeding, visual inspection); design: key: ◯: No bleeding is observed.; Δ: Bleeding is a little observed.; X: Bleeding is seriously observed; details: 50° C., 90% RH, 150 hours
Description: as §1, §2, §4
◯: No bleeding is observed.
Δ: Bleeding is a little observed.
X: Bleeding is seriously observed.
as §3

Light Fastness (residual ratio) ([1]; HG (Photo glossy film)) | Light Fastness (residual ratio) ([1]; PM (Paper for PM photo)) | Light Fastness (residual ratio) ([1]; PR (Professional photo paper)) | Light Fastness (residual ratio) ([1]; Plain Paper) | Ozone Fastness (residual ratio) ([2]; HG (Photo glossy film)) | Ozone Fastness (residual ratio) ([2]; PM (Paper for PM photo)) | Ozone Fastness (residual ratio) ([2]; PR (Professional photo paper)) | Ozone Fastness (residual ratio) ([2]; Plain Paper) | Moisture Fastness ([3]; HG (Photo glossy film)) | Moisture Fastness ([3]; PM (Paper for PM photo)) | Moisture Fastness ([3]; PR (Professional photo paper)) | Moisture Fastness ([3]; Plain Paper) | SMILES
67% | 86% | 80% | 78% | 91% | 97% | 89% | 99% | ◯-Δ | ◯-Δ | ◯ | ◯ | COc1cc(N=Nc2cccc(S(=O)(=O)[O-])c2)ccc1Nc1nc(Nc2ccc(N=Nc3cccc(S(=O)(=O)[O-])c3)cc2OC)nc(N(CCO)CCO)n1.[Na+].[Na+] [Comparative Example 1]
63% | 94% | 82% | 81% | 74% | 97% | 82% | 98% | Δ | X | ◯ | ◯ | COc1cc(N=Nc2cccc(S(=O)(=O)[O-])c2)ccc1NC(=O)Nc1ccc(N=Nc2cccc(S(=O)(=O)[O-])c2)cc1OC.[Na+].[Na+] [Comparative Example 2]
